# Patent US4239767A, “Antimycotic diaryloxy-imidazolyl-O,N-acetals” (Bayer Aktiengesellschaft, priority 1974, dated 1980)
# Columns and labels:
# [1] = tested on: candidosis; assay: in vivo action on oral administration, candidosis of mice; conditions: 100 mg/kg of body weight, twice daily, Control 5
# Excerpt: (§1) The table which follows summarizes in the vivo action of the preparations claimed on oral administration--for the models of candidosis of mice and trichophytia of mice--and on local administration--for the model of trichophytia of guinea-pigs.
# [2] = tested on: trichophytia; assay: in vivo action on oral administration, trichophytia of mice; design: key: ++++: very good action = no sign of; +++: good action = very slight sign of; ++: action = slight loss of hair; +: slight action = loss of hair, squamation; conditions: 100 mg/kg of body weight, twice daily, Control pronounced dermatophytosis
# Excerpt: as §1
# [3] = tested on: trichophytia; assay: in vivo action on local administration, trichophytia of guinea-pigs; design: key: ++++: very good action = no sign of; +++: good action = very slight sign of; ++: action = slight loss of hair; +: slight action = loss of hair, squamation; conditions: 1% strength solution once a day from the 3rd to the 13th day after infection, Control pronounced dermatophytosis
# Excerpt: as §1
# [4] = tested on: Asp. fum.; assay: in vitro series dilution test (MIC), Asp. fum.; type: cell-based; conditions: Aspergillus fumigatus; 28° C., 24-96 hours, 10^3 germs/ml; read-out: MIC values when used against Asp. fum.
# Procedure: (§2) The in vitro test was carried out as a series dilution test. Amount inoculated: 10^3 germs/ml. The nutrient substrates used were Sabouraud's milieu d'epreuve, meat stock/glucose bouillon, malt extract agar and Francis's blood agar. The incubation temperature was 28° C. and the incubation time 24-96 hours.
# [5] = tested on: Sporothrix Schenckii; assay: in vitro series dilution test (MIC), Sporothrix Schenckii; type: cell-based; conditions: 28° C., 24-96 hours, 10^3 germs/ml, read-out: MIC values when used against Sporothrix Schenckii
# Procedure: as §2
# [6] = tested on: Cand. alb.; assay: in vitro series dilution test (MIC), Cand. alb.; type: cell-based; conditions: 28° C., 24-96 hours, 10^3 germs/ml; read-out: MIC values when used against Cand. alb.
# Procedure: as §2
# [7] = tested on: Torulopsis glab.; assay: in vitro series dilution test (MIC), Torulopsis glab.; type: cell-based; conditions: 28° C., 24-96 hours, 10^3 germs/ml; read-out: MIC values when used against Torulopsis glab.
# Procedure: as §2
# [8] = tested on: Trich. ment.; assay: in vitro series dilution test (MIC), Trich. ment.; type: cell-based; conditions: Trichophyton mentagrophytes; 28° C., 24-96 hours, 10^3 germs/ml; read-out: MIC values when used against Trich. ment.
# Procedure: as §2
# [9] = tested on: Trich. ment.; assay: sporocidal action, Trich. ment. spores; type: cell-based, Trichophyton mentagrophytes; conditions: 10 γ of preparation/ml, 72 hours; Control 10^5 = mycelium
# Procedure: (§3) About 10^4 spores of Trich. ment. or Trich. Quinckeanum or Aspergillus fumigatus per ml are suspended in physiological NaCl solution and the stated preparations are added in concentrations of 1, 5, 10, 50 and 100 y/ml of suspending solution. The spore suspensions are incubated for 24, 48, 72, 96, 120 and 240 hours, 0.1 ml are withdrawn per concentration and per tube after the stated incubation times and spread homogeneously on malt extract Petri dishes, and the number of spores which still germinate is counted, after 48 hours' incubation time at 28° C., in comparison to untreated controls. The table which follows lists, for the individual preparations, the number of spores which still germinate after an exposure period of 72 hours at preparation concentrations of 10 γ/ml.
# [10] = tested on: Aspergillus fum.; assay: sporocidal action, Aspergillus fumigatus spores; type: cell-based; conditions: 10 γ of preparation/ml, 72 hours; Control 10^5 = mycelium
# Procedure: as §3
# [11] = tested on: spores; conditions: prior art / commercially available products; cited from earlier work
smiles,measurement,setting,value
CC(C)(C)C(O)C(Oc1ccc(Cc2ccccc2)cc1)n1ccnc1 (stereo not drawn) [drawing 16],"Therapeutic activity, candidosis, % survival",[1],60%
same,"Therapeutic activity, trichophytia, oral administration",[2],++
same,"Therapeutic activity, trichophytia, local application",[3],+++
CC(C)(C)C(=O)C(Oc1c(Cl)cc(-c2ccc(Br)cc2)cc1Cl)n1ccnc1 (stereo not drawn) [drawing 18],"Therapeutic activity, candidosis, % survival",[1],50%
same,"Therapeutic activity, trichophytia, oral administration",[2],++
same,"Therapeutic activity, trichophytia, local application",[3],+++
CC(C)(C)C(O)C(Oc1ccc(-c2ccc(Cl)cc2)cc1)n1ccnc1 (stereo not drawn) [drawing 15],"Therapeutic activity, candidosis, % survival",[1],80%
same,"Therapeutic activity, trichophytia, oral administration",[2],+++
same,"Therapeutic activity, trichophytia, local application",[3],++++
CC(C)(C)C(O)C(Oc1ccc(S(=O)(=O)c2ccccc2)cc1)n1ccnc1 (stereo not drawn) [drawing 10],MIC,[4],< 1 µg/mL
same,MIC,[5],0.5 µg/mL
same,MIC,[6],2 to 4 µg/mL
same,MIC,[7],4 µg/mL
same,MIC,[8],< 1 µg/mL
CC(C)(C)C(O)C(Oc1ccc(S(=O)(=O)c2ccccc2)cc1)n1ccnc1 (stereo not drawn) [drawing 17],"Therapeutic activity, candidosis, % survival",[1],80%
same,"Therapeutic activity, trichophytia, oral administration",[2],++
same,"Therapeutic activity, trichophytia, local application",[3],+++
CC(C)(C)C(=O)C(Oc1ccc(Cc2ccccc2)cc1)n1ccnc1 (stereo not drawn) [drawing 12],MIC,[4],2 µg/mL
same,MIC,[5],2 µg/mL
same,MIC,[6],16 µg/mL
same,MIC,[7],4 µg/mL
same,MIC,[8],< 1 µg/mL
CC(C)(C)C(=O)C(Oc1c(Cl)cc(-c2ccc(Br)cc2)cc1Br)n1ccnc1 (stereo not drawn) [drawing 14],MIC,[4],4 µg/mL
same,MIC,[5],4 µg/mL
same,MIC,[6],8 µg/mL
same,MIC,[7],4 µg/mL
same,MIC,[8],8 µg/mL
CC(C)(C)C(O)C(Oc1ccc(Cc2ccccc2)cc1)n1ccnc1 (stereo not drawn) [drawing 9],MIC,[4],< 1 µg/mL
same,MIC,[5],0.5 µg/mL
same,MIC,[6],4 µg/mL
same,MIC,[7],4 µg/mL
same,MIC,[8],< 1 µg/mL
CC(C)(C)C(O)C(Oc1ccc(Cc2ccccc2)cc1)n1ccnc1 (stereo not drawn) [drawing 23],"Number of spores still capable of germination, Trich. ment.",[9],110
same,"Number of spores still capable of germination, Aspergillus fum.",[10],40
CC(C)(C)C(=O)C(Oc1ccc(S(=O)(=O)c2ccccc2)cc1)n1ccnc1 (stereo not drawn) [drawing 27],"Number of spores still capable of germination, Trich. ment.",[9],10^5
same,"Number of spores still capable of germination, Aspergillus fum.",[10],70
CC(C)(C)C(=O)C(Oc1c(Cl)cc(-c2ccc(Br)cc2)cc1Br)n1ccnc1 (stereo not drawn) [drawing 21],"Therapeutic activity, candidosis, % survival",[1],40%
same,"Therapeutic activity, trichophytia, oral administration",[2],+
same,"Therapeutic activity, trichophytia, local application",[3],++
CC(C)(C)C(=O)C(Oc1ccc(Cc2ccccc2)cc1)n1ccnc1 (stereo not drawn) [drawing 26],"Number of spores still capable of germination, Trich. ment.",[9],40
same,"Number of spores still capable of germination, Aspergillus fum.",[10],60
CC(C)(C)C(O)C(Oc1ccc(-c2ccc(Cl)cc2)cc1)n1ccnc1 (stereo not drawn) [drawing 8],MIC,[4],2 to 4 µg/mL
same,MIC,[5],0.1 µg/mL
same,MIC,[6],4 µg/mL
same,MIC,[7],4 µg/mL
same,MIC,[8],< 1 µg/mL
CC(C)(C)C(=O)C(Oc1c(Cl)cc(-c2ccc(Br)cc2)cc1Cl)n1ccnc1 (stereo not drawn) [drawing 11],MIC,[4],4 µg/mL
same,MIC,[5],0.1 µg/mL
same,MIC,[6],8 µg/mL
same,MIC,[7],2 µg/mL
same,MIC,[8],4 µg/mL
CC(C)(C)C(=O)C(Oc1ccc(S(=O)(=O)c2ccccc2)cc1)n1ccnc1 (stereo not drawn) [drawing 20],"Therapeutic activity, candidosis, % survival",[1],80%
same,"Therapeutic activity, trichophytia, oral administration",[2],++
same,"Therapeutic activity, trichophytia, local application",[3],+++
CC(C)(C)C(=O)C(Oc1ccc(S(=O)(=O)c2ccccc2)cc1)n1ccnc1 (stereo not drawn) [drawing 13],MIC,[4],1 µg/mL
same,MIC,[5],2 µg/mL
same,MIC,[6],4 µg/mL
same,MIC,[7],2 µg/mL
same,MIC,[8],64 µg/mL
CC(C)(C)C(=O)C(Oc1ccc(Cc2ccccc2)cc1)n1ccnc1 (stereo not drawn) [drawing 19],"Therapeutic activity, candidosis, % survival",[1],50%
same,"Therapeutic activity, trichophytia, oral administration",[2],+++
same,"Therapeutic activity, trichophytia, local application",[3],++
CC(C)(C)C(=O)C(Oc1c(Cl)cc(-c2ccc(Br)cc2)cc1Br)n1ccnc1 (stereo not drawn) [drawing 28],"Number of spores still capable of germination, Trich. ment.",[9],60
same,"Number of spores still capable of germination, Aspergillus fum.",[10],45
CC(C)(C)C(O)C(Oc1ccc(-c2ccc(Cl)cc2)cc1)n1ccnc1 (stereo not drawn) [drawing 22],"Number of spores still capable of germination, Trich. ment.",[9],80
same,"Number of spores still capable of germination, Aspergillus fum.",[10],35
CC(C)(C)C(O)C(Oc1ccc(S(=O)(=O)c2ccccc2)cc1)n1ccnc1 (stereo not drawn) [drawing 24],"Number of spores still capable of germination, Trich. ment.",[9],60
same,"Number of spores still capable of germination, Aspergillus fum.",[10],70
COC1=CC(=O)C[C@@H](C)[C@]12Oc1c(Cl)c(OC)cc(OC)c1C2=O [Griseofulvin],sporocidal activity,[11],not present
CC(C)(C)C(=O)C(Oc1c(Cl)cc(-c2ccc(Br)cc2)cc1Cl)n1ccnc1 (stereo not drawn) [drawing 25],"Number of spores still capable of germination, Trich. ment.",[9],90
same,"Number of spores still capable of germination, Aspergillus fum.",[10],40
C[C@@H]1[C@H](O)[C@@H](C)/C=C/C=C/CC/C=C/C=C/C=C/C=C/C(O[C@H]2O[C@H](C)[C@@H](O)[C@H](N)[C@@H]2O)CC2O[C@](O)(CC(O)C(O)CCC(O)CC(O)CC(O)CC(=O)O[C@H]1C)CC(O)C2C(=O)O (stereo partly drawn) [Nystatin],sporocidal activity,[11],not present
